# Assay results reported in patent publication US10975116B2, “Methods of treating and preventing gastrointestinal motility disorders using aminosterols” (Enterin, Inc., priority 2013, dated 2021).
# Test system: intrinsic primary afferent neurons (IPANs) of the colon
# Assay: Patch-clamp of IPANs of the colon, epithelial lining peeled away
# Assay type: cell-based, mouse
# Protocol: In this Example the same procedure as that described in Example 12 was followed except that the epithelial lining of the colon was peeled away prior to application of squalamine to the lumen. Signals from individual IPANs were recorded. Concentrations of squalamine as low as 1 uM could now stimulate a robust response, similar quantitatively (and qualitatively) to concentrations 30-100 fold higher, when an intact epithelium was present.
substance,measurement,setting,value
squalamine,lowest concentration stimulating a robust IPAN response,epithelial lining peeled away,1 µM
same,fold higher concentrations needed for similar response when an intact epithelium was present,intact versus stripped epithelium,30-100 fold
